Test results reported in the NIST ThermoML archive (doi:10.1021/je049777o).

Assay: xn = mol fraction of the nth substance listed
Details: 101.3 kPa, Liquid

Clc1ccccc1 [chlorobenzene] + COC(=O)OC
Details	mass density [kg/m3]	viscosity [mPa·s]
293.15 K, x2 = 0	1106.74	0.8084
293.15 K, x2 = 0.1225	1102.19	0.7794
293.15 K, x2 = 0.238	1097.84	0.7586
293.15 K, x2 = 0.3499	1093.69	0.7315
293.15 K, x2 = 0.4545	1089.67	0.7132
293.15 K, x2 = 0.5559	1085.85	0.698
293.15 K, x2 = 0.6518	1082.22	0.6805
293.15 K, x2 = 0.7445	1078.84	0.6567
293.15 K, x2 = 0.8332	1075.58	0.6449
293.15 K, x2 = 0.9182	1072.42	0.6244
298.15 K, x2 = 0	1101.33	0.7422
298.15 K, x2 = 0.1225	1096.65	0.7318
298.15 K, x2 = 0.238	1092.16	0.7193
298.15 K, x2 = 0.3499	1087.88	0.6956
298.15 K, x2 = 0.4545	1083.72	0.6864
298.15 K, x2 = 0.5559	1079.81	0.6627
298.15 K, x2 = 0.6518	1076.05	0.6427
298.15 K, x2 = 0.7445	1072.55	0.6226
298.15 K, x2 = 0.8332	1069.17	0.6017
298.15 K, x2 = 0.9182	1065.93	0.5856
303.15 K, x2 = 0	1095.96	0.7053
303.15 K, x2 = 0.1225	1091.12	0.6862
303.15 K, x2 = 0.238	1086.51	0.6624
303.15 K, x2 = 0.3499	1082.09	0.646
303.15 K, x2 = 0.4545	1077.8	0.6408
303.15 K, x2 = 0.5559	1073.76	0.6134
303.15 K, x2 = 0.6518	1069.91	0.6014
303.15 K, x2 = 0.7445	1066.28	0.5781
303.15 K, x2 = 0.8332	1062.78	0.5632
303.15 K, x2 = 0.9182	1059.45	0.5487
313.15 K, x2 = 0	1085.06	0.631
313.15 K, x2 = 0.1225	1079.97	0.6145
313.15 K, x2 = 0.238	1075.08	0.5875
313.15 K, x2 = 0.3499	1070.36	0.5709
313.15 K, x2 = 0.4545	1065.81	0.563
313.15 K, x2 = 0.5559	1061.54	0.5423
313.15 K, x2 = 0.6518	1057.46	0.5322
313.15 K, x2 = 0.7445	1053.56	0.5192
313.15 K, x2 = 0.8332	1049.86	0.4992
313.15 K, x2 = 0.9182	1046.32	0.4874
323.15 K, x2 = 0	1074.26	0.5677
323.15 K, x2 = 0.1225	1068.8	0.5546
323.15 K, x2 = 0.238	1063.63	0.5273
323.15 K, x2 = 0.3499	1058.61	0.5145
323.15 K, x2 = 0.4545	1053.8	0.5039
323.15 K, x2 = 0.5559	1049.32	0.4878
323.15 K, x2 = 0.6518	1044.96	0.4729
323.15 K, x2 = 0.7445	1040.83	0.4591
323.15 K, x2 = 0.8332	1036.88	0.4468
323.15 K, x2 = 0.9182	1033.12	0.4365
333.15 K, x2 = 0	1063.32	0.5069
333.15 K, x2 = 0.1225	1057.53	0.4954
333.15 K, x2 = 0.238	1052.07	0.4791
333.15 K, x2 = 0.3499	1046.76	0.4619
333.15 K, x2 = 0.4545	1041.66	0.452
333.15 K, x2 = 0.5559	1036.93	0.4401
333.15 K, x2 = 0.6518	1032.33	0.4277
333.15 K, x2 = 0.7445	1027.92	0.415
333.15 K, x2 = 0.8332	1023.72	0.4046
333.15 K, x2 = 0.9182	1019.74	0.3949
343.15 K, x2 = 0	1052.44	0.4658
343.15 K, x2 = 0.1225	1046.33	0.455
343.15 K, x2 = 0.238	1040.54	0.4326
343.15 K, x2 = 0.3499	1034.93	0.4242
343.15 K, x2 = 0.4545	1029.51	0.4142
343.15 K, x2 = 0.5559	1024.52	0.3978
343.15 K, x2 = 0.6518	1019.67	0.3879
343.15 K, x2 = 0.7445	1014.99	0.377
343.15 K, x2 = 0.8332	1010.53	0.3678
343.15 K, x2 = 0.9182	1006.31	0.3609

COC(=O)OC [dimethyl carbonate] + CCCCCC
Details	mass density [kg/m3]	viscosity [mPa·s]
293.15 K, x1 = 0.0961	685.68	0.3032
293.15 K, x1 = 0.193	712.34	0.3094
293.15 K, x1 = 0.2909	741.99	0.3213
293.15 K, x1 = 0.3894	774.82	0.341
293.15 K, x1 = 0.489	811.38	0.3647
293.15 K, x1 = 0.5893	851.98	0.3939
293.15 K, x1 = 0.6906	897.34	0.427
293.15 K, x1 = 0.7928	948.58	0.4715
293.15 K, x1 = 0.896	1006.55	0.542
293.15 K, x1 = 1	1069.54	0.6173
298.15 K, x1 = 0.0961	680.92	0.2901
298.15 K, x1 = 0.193	707.38	0.294
298.15 K, x1 = 0.2909	736.8	0.306
298.15 K, x1 = 0.3894	769.42	0.3232
298.15 K, x1 = 0.489	805.8	0.3449
298.15 K, x1 = 0.5893	846.19	0.3709
298.15 K, x1 = 0.6906	891.45	0.4024
298.15 K, x1 = 0.7928	942.39	0.4472
298.15 K, x1 = 0.896	1000.17	0.5031
298.15 K, x1 = 1	1062.95	0.5734
303.15 K, x1 = 0.0961	676.14	0.279
303.15 K, x1 = 0.193	702.37	0.2817
303.15 K, x1 = 0.2909	731.62	0.2923
303.15 K, x1 = 0.3894	764.04	0.3061
303.15 K, x1 = 0.489	800.21	0.3252
303.15 K, x1 = 0.5893	840.41	0.3502
303.15 K, x1 = 0.6906	885.48	0.3808
303.15 K, x1 = 0.7928	936.19	0.4221
303.15 K, x1 = 0.896	993.78	0.4748
303.15 K, x1 = 1	1056.35	0.5403
313.15 K, x1 = 0.0961	666.41	0.2513
313.15 K, x1 = 0.193	692.21	0.2555
313.15 K, x1 = 0.2909	721.04	0.2645
313.15 K, x1 = 0.3894	753.05	0.277
313.15 K, x1 = 0.489	788.82	0.2938
313.15 K, x1 = 0.5893	828.62	0.3163
313.15 K, x1 = 0.6906	873.34	0.3417
313.15 K, x1 = 0.7928	923.65	0.3763
313.15 K, x1 = 0.896	980.84	0.4229
313.15 K, x1 = 1	1043.01	0.4807
323.15 K, x1 = 0.0961	656.55	0.2333
323.15 K, x1 = 0.193	681.9	0.2344
323.15 K, x1 = 0.2909	710.27	0.2423
323.15 K, x1 = 0.3894	741.92	0.2536
323.15 K, x1 = 0.489	777.28	0.2681
323.15 K, x1 = 0.5893	816.69	0.288
323.15 K, x1 = 0.6906	861.07	0.3101
323.15 K, x1 = 0.7928	910.98	0.3404
323.15 K, x1 = 0.896	967.8	0.3781
323.15 K, x1 = 1	1029.59	0.427
333.15 K, x1 = 0.0961	646.44	0.213
333.15 K, x1 = 0.193	671.36	0.2167
333.15 K, x1 = 0.2909	699.25	0.2239
333.15 K, x1 = 0.3894	730.55	0.234
333.15 K, x1 = 0.489	765.5	0.2466
333.15 K, x1 = 0.5893	804.52	0.2639
333.15 K, x1 = 0.6906	848.53	0.2842
333.15 K, x1 = 0.7928	898.13	0.3117
333.15 K, x1 = 0.896	954.54	0.3447
333.15 K, x1 = 1	1016	0.3893
